# Test results from patent US7825132B2, “Inhibition of FGFR3 and treatment of multiple myeloma” (Novartis Vaccines and Diagnostics, Inc., priority 2002, dated 2010).
# Read-outs that look alike come from different tables or passages of the source.
# Columns and labels:
# [1] = system: cancer and primary cell lines; experiment: antiproliferative activity, MTS assay, 27 cancer and primary cell lines (Table 6); type: cell-based; details: Homo sapiens, 26 out of the 27 cell lines, 72 hours
# Experimental: . […] The EC50 values were calculated using nonlinear regression. […]
# [2] = system: ERK (MAPK); experiment: ERK (MAPK) phosphorylation in HCT116 tumors; type: in vivo; details: dose- and time-dependent
# [3] = system: FGF-2 supplemented Matrigel neovascularization
# [4] = system: PC3 human prostate tumor xenografts
# [5] = system: VEGFR1, VEGFR2, PDGFRβ, and FGFR1; details: KM12L4a tumors after treatment
# [6] = system: TF-1 cells; experiment: cells; details: Homo sapiens, TF-1, 72 h
# [7] = system: OPM-2 cells; details: Grand et al., Leukemia 2004; cited from earlier work
# [8] = target: T1, c-Kit (Homo sapiens, UniProt P10721); experiment: In vitro RTK kinase assay (TRF or radioactive); type: biochemical; details: Table 13
# T1 construct: Recombinant proteins corresponding to the cytoplasmic domains of the c-Kit and FLT-3 receptors were purchased (Proquinase); purchased Proquinase
# [9] = Monkey multiple oral dose experiment, plasma levels; type: in vivo; details: compound 1 5 mg/kg BID oral, day 1 and 14 samples
# [10] = target: T2, CYP1A2 (Homo sapiens, UniProt P05177); experiment: Inhibition of cDNA derived CYP isozymes; type: in vitro ADME; details: cDNA-derived (recombinant) CYP1A2
# T2 sequence (P05177 1-516): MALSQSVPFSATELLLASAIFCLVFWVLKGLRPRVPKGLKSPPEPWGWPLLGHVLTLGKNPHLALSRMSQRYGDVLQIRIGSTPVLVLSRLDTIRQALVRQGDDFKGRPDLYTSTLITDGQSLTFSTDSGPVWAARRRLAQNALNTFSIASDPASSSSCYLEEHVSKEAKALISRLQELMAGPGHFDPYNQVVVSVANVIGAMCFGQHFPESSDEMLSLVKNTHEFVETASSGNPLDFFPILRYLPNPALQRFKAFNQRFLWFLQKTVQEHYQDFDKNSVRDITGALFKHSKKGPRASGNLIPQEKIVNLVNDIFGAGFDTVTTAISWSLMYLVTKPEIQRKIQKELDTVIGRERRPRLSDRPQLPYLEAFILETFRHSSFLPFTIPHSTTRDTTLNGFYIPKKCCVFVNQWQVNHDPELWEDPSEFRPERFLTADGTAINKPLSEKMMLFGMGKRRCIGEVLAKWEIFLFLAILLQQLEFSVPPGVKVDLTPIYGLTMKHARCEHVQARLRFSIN
# Text: (§1) The compound was stable in human liver microsomes. […].
# [11] = target: CYP2C9 (Homo sapiens, UniProt P11712); experiment: Inhibition of cDNA derived CYP isozymes; type: in vitro ADME; details: cDNA-derived (recombinant) CYP2C9
# Text: as §1
# [12] = target: CYP3A4 (Homo sapiens, UniProt P08684); experiment: Inhibition of cDNA derived CYP isozymes; type: in vitro ADME; details: cDNA-derived (recombinant) CYP3A4
# Text: as §1
# [13] = target: CYP2C19 (Homo sapiens, UniProt P33261); experiment: Inhibition of cDNA derived CYP isozymes; type: in vitro ADME; details: cDNA-derived (recombinant) CYP2C19
# [14] = target: CYP2D6 (Homo sapiens, UniProt P10635); experiment: Inhibition of cDNA derived CYP isozymes; type: in vitro ADME; details: cDNA-derived (recombinant) CYP2D6
# [15] = Compound 1 and metabolite levels in rat plasma, 2 week toxicology study; type: in vivo
# T1 sequence (P10721 546-976 limits assumed): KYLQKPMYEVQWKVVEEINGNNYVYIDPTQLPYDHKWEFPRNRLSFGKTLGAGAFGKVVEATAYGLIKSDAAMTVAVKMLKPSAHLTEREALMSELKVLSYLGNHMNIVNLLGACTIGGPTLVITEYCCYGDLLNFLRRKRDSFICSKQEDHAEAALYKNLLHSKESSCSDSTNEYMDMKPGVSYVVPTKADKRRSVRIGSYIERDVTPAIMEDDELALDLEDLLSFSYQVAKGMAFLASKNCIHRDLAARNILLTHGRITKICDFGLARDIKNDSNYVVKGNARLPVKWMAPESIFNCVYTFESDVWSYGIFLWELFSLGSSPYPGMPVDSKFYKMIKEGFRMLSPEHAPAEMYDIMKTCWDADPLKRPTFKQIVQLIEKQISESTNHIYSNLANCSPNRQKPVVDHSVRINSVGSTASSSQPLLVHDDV
# Sequence of CYP2D6 (P10635 whole entry): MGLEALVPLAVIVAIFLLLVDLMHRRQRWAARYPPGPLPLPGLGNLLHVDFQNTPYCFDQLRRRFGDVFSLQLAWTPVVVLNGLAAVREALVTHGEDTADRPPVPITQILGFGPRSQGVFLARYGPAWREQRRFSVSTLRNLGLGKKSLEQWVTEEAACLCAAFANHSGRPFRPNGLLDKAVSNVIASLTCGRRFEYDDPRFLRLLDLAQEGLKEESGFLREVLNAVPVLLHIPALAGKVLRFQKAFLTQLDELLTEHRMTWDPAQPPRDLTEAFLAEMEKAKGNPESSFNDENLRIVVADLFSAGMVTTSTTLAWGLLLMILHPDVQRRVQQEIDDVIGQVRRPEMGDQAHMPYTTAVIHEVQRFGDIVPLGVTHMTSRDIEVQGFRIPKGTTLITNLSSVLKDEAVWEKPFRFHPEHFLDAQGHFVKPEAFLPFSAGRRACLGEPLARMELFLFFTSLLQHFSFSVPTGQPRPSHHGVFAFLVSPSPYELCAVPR
# Sequence of CYP2C19 (P33261 whole entry): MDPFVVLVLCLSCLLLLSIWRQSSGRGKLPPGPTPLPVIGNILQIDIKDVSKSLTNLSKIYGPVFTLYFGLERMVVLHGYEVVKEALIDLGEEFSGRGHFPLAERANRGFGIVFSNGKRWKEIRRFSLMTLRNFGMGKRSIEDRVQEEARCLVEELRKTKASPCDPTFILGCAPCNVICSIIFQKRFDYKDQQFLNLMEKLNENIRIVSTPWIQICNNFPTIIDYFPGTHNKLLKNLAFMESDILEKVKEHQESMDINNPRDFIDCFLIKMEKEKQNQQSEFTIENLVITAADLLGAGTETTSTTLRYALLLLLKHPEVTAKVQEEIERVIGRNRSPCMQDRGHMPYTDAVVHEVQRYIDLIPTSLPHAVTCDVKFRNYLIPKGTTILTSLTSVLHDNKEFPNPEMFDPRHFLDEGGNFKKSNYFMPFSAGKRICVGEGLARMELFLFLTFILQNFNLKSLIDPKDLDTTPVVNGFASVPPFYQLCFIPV
# Sequence of CYP3A4 (P08684 whole entry): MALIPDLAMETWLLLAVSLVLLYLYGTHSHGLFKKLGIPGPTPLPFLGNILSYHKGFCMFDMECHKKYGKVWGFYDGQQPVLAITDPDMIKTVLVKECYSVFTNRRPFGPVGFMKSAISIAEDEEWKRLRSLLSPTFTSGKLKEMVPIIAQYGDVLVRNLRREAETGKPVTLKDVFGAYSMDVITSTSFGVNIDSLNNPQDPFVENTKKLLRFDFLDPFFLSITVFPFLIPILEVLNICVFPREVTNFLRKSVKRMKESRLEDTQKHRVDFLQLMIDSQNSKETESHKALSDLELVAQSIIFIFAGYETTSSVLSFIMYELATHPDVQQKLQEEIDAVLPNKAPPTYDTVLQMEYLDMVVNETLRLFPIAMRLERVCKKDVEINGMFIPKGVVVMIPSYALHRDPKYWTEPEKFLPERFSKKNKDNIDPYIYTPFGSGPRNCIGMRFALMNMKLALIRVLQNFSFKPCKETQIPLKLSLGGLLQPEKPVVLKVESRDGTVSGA
# Sequence of CYP2C9 (P11712 whole entry): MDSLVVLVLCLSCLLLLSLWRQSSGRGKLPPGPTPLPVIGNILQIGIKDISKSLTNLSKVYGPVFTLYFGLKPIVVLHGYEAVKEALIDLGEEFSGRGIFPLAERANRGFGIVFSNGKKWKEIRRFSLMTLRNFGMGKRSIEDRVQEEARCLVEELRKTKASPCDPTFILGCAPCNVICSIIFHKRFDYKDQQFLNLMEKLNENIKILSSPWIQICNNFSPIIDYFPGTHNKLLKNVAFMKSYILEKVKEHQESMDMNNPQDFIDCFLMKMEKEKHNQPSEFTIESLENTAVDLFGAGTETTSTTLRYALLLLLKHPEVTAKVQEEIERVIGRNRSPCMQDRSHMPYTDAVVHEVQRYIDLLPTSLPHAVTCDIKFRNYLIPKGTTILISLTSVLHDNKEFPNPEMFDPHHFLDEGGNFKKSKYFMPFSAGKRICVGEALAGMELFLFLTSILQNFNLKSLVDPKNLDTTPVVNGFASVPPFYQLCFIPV
compound,measurement,setting,value
CN1CCN(c2ccc3[nH]c(-c4c(N)c5c(F)cccc5[nH]c4=O)nc3c2)CC1 [Example 166],EC50,[1],< 10 µM
CN1CCN(c2ccc3nc(-c4c(N)c5c(F)cccc5[nH]c4=O)[nH]c3c2)CC1 [Compound 1],phosphorylation of ERK (MAPK),[2],inhibited
same,% Hb inhibition vs. Vehicle treatment of Matrigel + FGF,[3]; 30 mg/kg,71%
same,% Hb inhibition vs. Vehicle treatment of Matrigel + FGF,[3]; 200 mg/kg,89%
same,% Hb inhibition vs. Vehicle treatment of Matrigel + FGF,[3]; 300 mg/kg,91%
same,inhibition vs. FGF-supplemented controls,"[3]; range over 30, 100, 200 and 300 mg/kg",70-92%
same,% TGI vs. vehicle,[4]; 100 mpk q 2 days,75%
same,% TGI vs. vehicle,[4]; 100 mpk q 3 days,68%
same,% TGI vs. vehicle,[4]; 100 mpk q 4 days,66%
same,% TGI vs. vehicle,"[4]; 100 mpk qd, days 1-11",60%
same,"phosphorylation of VEGFR1, VEGFR2, PDGFRβ, and FGFR1",[5],inhibited in a time- and dose-dependent manner
same,EC50,[6],≤ 0.05 µM
CCN(CC)CCCCNc1ncc2cc(-c3cc(OC)cc(OC)c3)c(NC(=O)NC(C)(C)C)nc2n1 [PD173074],cytotoxic response / apoptosis in OPM2 cells,[7],failed to induce apoptosis
"C[N+]1([O-])CCN(c2ccc3nc(-c4c(N)c5c(F)cccc5[nH]c4=O)[nH]c3c2)CC1 [Compound 2, 4-Amino-5-fluoro-3-[5-(4-methyl-4-oxidopiperazin-1-yl)-1H-benzimidazol-2-yl]quinolin-2(1H)-one]",IC50,[8],0.0002 µM
same,presence of the N-oxide metabolite in monkey plasma,[9],not detected
CN1CCN(c2ccc3nc(-c4c(N)c5c(F)cccc5[nH]c4=O)[nH]c3c2)CC1,IC50,[10],> 25 µM
same,IC50,[11],> 25 µM
same,IC50,[12],> 25 µM
same,IC50,[13],> 25 µM
same,IC50,[14],> 25 µM
same,tolerability,"[3]; mouse, in vivo",well tolerated
"Nc1c(-c2nc3ccc(N4CCNCC4)cc3[nH]2)c(=O)[nH]c2cccc(F)c12 [Compound 3, 4-Amino-5-fluoro-3-(5-piperazin-1-yl-1H-benzimidazol-2-yl)quinolin-2(1H)-one]",IC50,[8],0.0002 µM
same,"Des-CH3 (ng/ml), estimated from UV","[15]; compound 1 30 mg/kg PO, Day 14, 1-2 hr",6 ng/mL
same,"Des-CH3 (ng/ml), estimated from UV","[15]; compound 1 30 mg/kg PO, Day 14, 4-8 hr",12 ng/mL
same,"Des-CH3 (ng/ml), estimated from UV","[15]; compound 1 100 mg/kg PO, Day 1, 1-2 hr",35 ng/mL
same,"Des-CH3 (ng/ml), estimated from UV","[15]; compound 1 100 mg/kg PO, Day 1, 4-8 hr",84 ng/mL
